Reference: PMC6195765 (Organic letters, 2018)

System: PvfC
Assay: ATP-[…]PPi exchange assay
Type: biochemical, Pseudomonas entomophila
Conditions: ATP co-substrate; adenylation domain

- Km: 3.4 ± 0.7 mM
SMILES: CC(C)[C@H](N)C(=O)O [L-Val]
